Test results reported in PubChem BioAssay (NCI).
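Test compounds were applied to cells in 96-well plates for 48 hours at 5 doses. GI50 marks 50% less growth. TGI: total growth inhibition.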

Experiments:
Test in all cases: DTP human tumour cell line panel, 48 h
RPMI-8226 leukemia = system: RPMI-8226 leukemia
T-47D breast = system: T-47D breast
MDA-MB-435 = system: MDA-MB-435
SR leukemia = system: SR leukemia
SF-268 CNS = system: SF-268 CNS
A498 renal = system: A498 renal
SK-MEL-2 melanoma = system: SK-MEL-2 melanoma
NCI-H226 lung = system: NCI-H226 lung
COLO 205 colon = system: COLO 205 colon
HOP-92 NSCLC = system: HOP-92 NSCLC
HS 578T breast = system: HS 578T breast
DU-145 prostate = system: DU-145 prostate
SK-OV-3 ovarian = system: SK-OV-3 ovarian
NCI/ADR-RES ovarian = system: NCI/ADR-RES ovarian
NCI-H23 lung = system: NCI-H23 lung
TK-10 renal = system: TK-10 renal
RXF 393 renal = system: RXF 393 renal
HCC-2998 colon = system: HCC-2998 colon
HL-60(TB) leukemia = system: HL-60(TB) leukemia
HCT-116 colon = system: HCT-116 colon
SF-539 CNS = system: SF-539 CNS
EKVX NSCLC = system: EKVX NSCLC
MDA-MB-231 breast = system: MDA-MB-231 breast
CAKI-1 renal = system: CAKI-1 renal
SW-620 colon = system: SW-620 colon
SN12C renal = system: SN12C renal
UACC-257 melanoma = system: UACC-257 melanoma
LOX IMVI melanoma = system: LOX IMVI melanoma
IGROV1 ovarian = system: IGROV1 ovarian
SK-MEL-28 melanoma = system: SK-MEL-28 melanoma
NCI-H522 lung = system: NCI-H522 lung
HCT-15 colon = system: HCT-15 colon
KM12 colon = system: KM12 colon
OVCAR-3 ovarian = system: OVCAR-3 ovarian
OVCAR-8 ovarian = system: OVCAR-8 ovarian
SF-295 CNS = system: SF-295 CNS
K-562 leukemia = system: K-562 leukemia
OVCAR-4 ovarian = system: OVCAR-4 ovarian
PC-3 prostate = system: PC-3 prostate
U251 CNS = system: U251 CNS
MOLT-4 leukemia = system: MOLT-4 leukemia
UACC-62 melanoma = system: UACC-62 melanoma
CCRF-CEM leukemia = system: CCRF-CEM leukemia
M14 melanoma = system: M14 melanoma
A549 NSCLC = system: A549 NSCLC
SNB-19 CNS = system: SNB-19 CNS
ACHN renal = system: ACHN renal
UO-31 renal = system: UO-31 renal
SK-MEL-5 melanoma = system: SK-MEL-5 melanoma
MALME-3M melanoma = system: MALME-3M melanoma
MDA-MB-468 breast = system: MDA-MB-468 breast
786-0 renal = system: 786-0 renal
NCI-H460 lung = system: NCI-H460 lung
HT29 colon = system: HT29 colon
HOP-62 NSCLC = system: HOP-62 NSCLC
OVCAR-5 ovarian = system: OVCAR-5 ovarian
MCF7 breast = system: MCF7 breast
BT-549 breast = system: BT-549 breast

Work on `COc1ccc(C(=O)/C=C/c2ccc3ccccc3c2)cc1S(N)(=O)=O` yielded a GI50 (RPMI-8226 leukemia) of 1.63 µM, a TGI (RPMI-8226 leukemia) of 4.62 µM and a GI50 (T-47D breast) of 1.76 µM. The TGI (T-47D breast) was 6.77 µM, the GI50 (MDA-MB-435) was 2.4 µM and the TGI (MDA-MB-435) was 6.72 µM. It also gave a GI50 (SR leukemia) of 0.867 µM, a TGI (SR leukemia) of 3.54 µM and a GI50 (SF-268 CNS) of 3.2 µM. It also gave a TGI (SF-268 CNS) of 13.3 µM, a GI50 (A498 renal) of 14.6 µM and a TGI (A498 renal) of 28.2 µM. The GI50 (SK-MEL-2 melanoma) was 12.2 µM, the TGI (SK-MEL-2 melanoma) was 25.4 µM and the GI50 (NCI-H226 lung) was 2.36 µM. It also gave a TGI (NCI-H226 lung) of 8.37 µM, a GI50 (COLO 205 colon) of 1.96 µM and a TGI (COLO 205 colon) of 4.06 µM. For the same compound, the GI50 (HOP-92 NSCLC) was 1.9 µM, the TGI (HOP-92 NSCLC) was 9.2 µM and the GI50 (HS 578T breast) was 17.5 µM. The TGI (HS 578T breast) was 54.8 µM, the GI50 (DU-145 prostate) was 3.31 µM and the TGI (DU-145 prostate) was 11.8 µM. The GI50 (SK-OV-3 ovarian) was 4.91 µM, the TGI (SK-OV-3 ovarian) was 18.6 µM and the GI50 (NCI/ADR-RES ovarian) was 2.7 µM. For the same compound, the TGI (NCI/ADR-RES ovarian) was 8.21 µM, the GI50 (NCI-H23 lung) was 1.73 µM and the TGI (NCI-H23 lung) was 3.3 µM. It also gave a GI50 (TK-10 renal) of 2.04 µM, a TGI (TK-10 renal) of 8.17 µM and a GI50 (RXF 393 renal) of 1.57 µM. For the same compound, the TGI (RXF 393 renal) was 3.34 µM, the GI50 (HCC-2998 colon) was 1.56 µM and the TGI (HCC-2998 colon) was 2.93 µM. The GI50 (HL-60(TB) leukemia) was 1.61 µM, the TGI (HL-60(TB) leukemia) was 4.11 µM and the GI50 (HCT-116 colon) was 1.9 µM. It also gave a TGI (HCT-116 colon) of 4.82 µM, a GI50 (SF-539 CNS) of 1.69 µM and a TGI (SF-539 CNS) of 3.15 µM. The GI50 (EKVX NSCLC) was 6.61 µM, the TGI (EKVX NSCLC) was 20.1 µM and the GI50 (MDA-MB-231 breast) was 2.5 µM. It also gave a TGI (MDA-MB-231 breast) of 7.51 µM, a GI50 (CAKI-1 renal) of 2.12 µM and a TGI (CAKI-1 renal) of 6.17 µM. The GI50 (SW-620 colon) was 1.78 µM, the TGI (SW-620 colon) was 3.6 µM and the GI50 (SN12C renal) was 1.56 µM. The TGI (SN12C renal) was 3.25 µM, the GI50 (UACC-257 melanoma) was 3.79 µM and the TGI (UACC-257 melanoma) was 14.5 µM. The GI50 (LOX IMVI melanoma) was 1.32 µM, the TGI (LOX IMVI melanoma) was 2.59 µM and the GI50 (IGROV1 ovarian) was 2.07 µM. It also gave a TGI (IGROV1 ovarian) of 5.36 µM, a GI50 (SK-MEL-28 melanoma) of 2.13 µM and a TGI (SK-MEL-28 melanoma) of 5.14 µM. For the same compound, the GI50 (NCI-H522 lung) was 1.62 µM, the TGI (NCI-H522 lung) was 3.32 µM and the GI50 (HCT-15 colon) was 0.574 µM. For the same compound, the TGI (HCT-15 colon) was 2.08 µM, the GI50 (KM12 colon) was 1.56 µM and the TGI (KM12 colon) was 3.33 µM. The GI50 (OVCAR-3 ovarian) was 1.58 µM, the TGI (OVCAR-3 ovarian) was 3.38 µM and the GI50 (OVCAR-8 ovarian) was 2.48 µM. For the same compound, the TGI (OVCAR-8 ovarian) was 7.04 µM, the GI50 (SF-295 CNS) was 1.88 µM and the TGI (SF-295 CNS) was 4.89 µM. The GI50 (K-562 leukemia) was 1.58 µM, the TGI (K-562 leukemia) was 5.45 µM and the GI50 (OVCAR-4 ovarian) was 2.96 µM. The TGI (OVCAR-4 ovarian) was 10.9 µM, the GI50 (PC-3 prostate) was 1.78 µM and the TGI (PC-3 prostate) was 4.05 µM. For the same compound, the GI50 (U251 CNS) was 1.19 µM, the TGI (U251 CNS) was 2.46 µM and the GI50 (MOLT-4 leukemia) was 2.09 µM. The TGI (MOLT-4 leukemia) was 4.95 µM, the GI50 (UACC-62 melanoma) was 1.6 µM and the TGI (UACC-62 melanoma) was 3.32 µM. For the same compound, the GI50 (CCRF-CEM leukemia) was 2.63 µM, the TGI (CCRF-CEM leukemia) was 6.4 µM and the GI50 (M14 melanoma) was 2.26 µM. It also gave a TGI (M14 melanoma) of 5.98 µM, a GI50 (A549 NSCLC) of 1.99 µM and a TGI (A549 NSCLC) of 7.72 µM. The GI50 (SNB-19 CNS) was 2.15 µM, the TGI (SNB-19 CNS) was 5.95 µM and the GI50 (ACHN renal) was 1.78 µM. The TGI (ACHN renal) was 3.37 µM, the GI50 (UO-31 renal) was 1.31 µM and the TGI (UO-31 renal) was 2.58 µM. It also gave a GI50 (SK-MEL-5 melanoma) of 3.48 µM, a TGI (SK-MEL-5 melanoma) of 13.6 µM and a GI50 (MALME-3M melanoma) of 3.2 µM. The TGI (MALME-3M melanoma) was 14.9 µM, the GI50 (MDA-MB-468 breast) was 1.43 µM and the TGI (MDA-MB-468 breast) was 2.9 µM. For the same compound, the GI50 (786-0 renal) was 1.69 µM, the TGI (786-0 renal) was 3.62 µM and the GI50 (NCI-H460 lung) was 2.96 µM. It also gave a TGI (NCI-H460 lung) of 8.84 µM, a GI50 (HT29 colon) of 1.67 µM and a TGI (HT29 colon) of 3.53 µM. The GI50 (HOP-62 NSCLC) was 1.99 µM, the TGI (HOP-62 NSCLC) was 5.49 µM and the GI50 (OVCAR-5 ovarian) was 1.75 µM. It also gave a TGI (OVCAR-5 ovarian) of 4.15 µM, a GI50 (MCF7 breast) of 1.54 µM and a TGI (MCF7 breast) of 4.72 µM. It also gave a GI50 (BT-549 breast) of 1.53 µM and a TGI (BT-549 breast) of 3.27 µM.
